# Assay results from paper PMC10133546, “Simultaneous determination of multiple components in rat plasma by UHPLC-sMRM for pharmacokinetic studies after oral administration of Qingjin Yiqi Granules” (Frontiers in Pharmacology, 2023).
# Where two headings read alike, the source gives them in different places.
# What was measured:
# [1] = Pharmacokinetic study in rat plasma after oral administration of QJYQ (UHPLC-sMRM); type: in vivo, Sprague-Dawley rats; details: for AUC(0-inf): read-out: AUC(0-∞); for MRT inf: read-out: MRT (0-∞); for MRT last: read-out: MRT(0-t)
# Procedure: Exion LC AD tandem Blueline 3500 triple quadrupole mass spectrometer (AB SCIEX, Framingham, MA, United States) was used to thirty-three compounds in rat plasma. […] The whole detailed parameters of sMRM were obtained in Supplementary Table S1.
# Rat plasma (100 μL) was mixed with 10% formic acid (10 μL) and vortexed for 1 min at room temperature. ISs (10 μL) and methanol/acetonitrile (1/1, v/v) (400 μL) were added and vortexed for 5 min, then centrifuged for 10 min at 14,000 rpm and 4°C. The transported supernatant was condensed to dryness under the flow of nitrogen gas. The dried residue was reconstituted with 70% methanol (100 μL) by vortex-mixing for 5 min and centrifuging at 14,000 rpm for 10 min. Last, 2 μL of the solution were injected into the UHPLC-sMRM system.
# The pharmacokinetic study was approved by the Animal Ethics Committee of Tianjin University of Traditional Chinese Medicine (TCM-LAEC2021228). Ten male Sprague-Dawley rats (weight 220–240 g) was kept at the animal center of Tianjin University of Traditional Chinese Medicine (Tianjin, China). […] The sample was transferred right away following a 10 min period of centrifugation at 7000 rpm and 4°C. All plasma samples were frozen and stored at −80°C.
# All the pharmacokinetic parameters were calculated using the DAS 1.0 software (Drug and Statistics 1.0, Medical College of Wannan, China). Pharmacokinetic parameters include the maximum drug concentration in plasma (Cmax), the time to achieve maximum drug concentration (Tmax), the area under the plasma concentration-time curve (AUC), elimination half-life (T1/2), and mean residence time (MRT). The pharmacokinetic parameters were computed using the non-compartmental model. All data are expressed as mean ± standard deviation (SD). GraphPad Prism 8.0 (GraphPad Software Inc., La Jolla, CA, United States) software was used to draw the drug-time curve.
# [2] = Stability of the working solution (4°C for 1 month); type: physicochemical
# [3] = Stability of analytes in rat plasma (auto-sampler, freeze-thaw, room temperature, long-term); details: for Autosampler for 24 h Accuracy (%): autosampler 24 h; for Room temperature for 24 h Accuracy (%): room temperature 24 h; for Freeze thaw cycles Accuracy (%): three freeze-thaw cycles
# [4] = male, Sprague-Dawley, rat, plasma, po, 3.15 g/kg, rat plasma, oral QJYQ 3.15 g/kg, n = 8, mean ± SD, read-out: Tmax
# [5] = male, Sprague-Dawley, rat plasma, oral QJYQ 3.15 g/kg, n = 8, mean ± SD
# [6] = male, Sprague-Dawley, rat plasma, oral QJYQ 3.15 g/kg, n = 8, mean ± SD, read-out: AUC(0-t)
# [7] = rat plasma, oral QJYQ 3.15 g/kg, n = 8, mean ± SD
smiles,measurement,setting,value
COc1c(O)cc(O)c2c(=O)cc(-c3ccccc3)oc12 [wogonin],Tmax,[1]; [4],6.29 ± 0.76 h
same,MRT,"[1]; male, Sprague-Dawley, rat plasma, oral QJYQ 3.15 g/kg, MRT type not specified, read-out: MRT",> 8 h
same,half-life,[1]; [5],115 ± 5.4 min
same,AUC(0-t),[1]; [6],288 ± 66.1 ng·h/mL
same,AUC(0-inf),[1]; [5],288 ± 66.1 ng·h/mL
same,MRT inf,[1]; [5],8.27 ± 1.09 h
same,MRT last,[1]; [5],8.27 ± 1.09 h
same,Cmax,[1]; [7],38.13 ± 10.55 ng/mL
same,Working solution Accuracy (%),[2]; concentration 1.56 ng/mL,98.0%
same,Working solution Accuracy (%),[2]; concentration 12.5 ng/mL,98.9%
same,Working solution Accuracy (%),[2]; concentration 100 ng/mL,85.8%
same,Working solution Accuracy (%),[2]; concentration 500 ng/mL,100.0%
same,Autosampler for 24 h Accuracy (%),[3]; concentration 1.56 ng/mL,82.8%
same,Autosampler for 24 h Accuracy (%),[3]; concentration 12.5 ng/mL,111.0%
same,Autosampler for 24 h Accuracy (%),[3]; concentration 100 ng/mL,102.0%
same,Autosampler for 24 h Accuracy (%),[3]; concentration 500 ng/mL,90.5%
same,Room temperature for 24 h Accuracy (%),[3]; concentration 1.56 ng/mL,98.0%
same,Room temperature for 24 h Accuracy (%),[3]; concentration 12.5 ng/mL,94.1%
same,Room temperature for 24 h Accuracy (%),[3]; concentration 100 ng/mL,89.8%
same,Room temperature for 24 h Accuracy (%),[3]; concentration 500 ng/mL,106.0%
same,Freeze thaw cycles Accuracy (%),[3]; concentration 1.56 ng/mL,86.4%
same,Freeze thaw cycles Accuracy (%),[3]; concentration 12.5 ng/mL,89.6%
same,Freeze thaw cycles Accuracy (%),[3]; concentration 500 ng/mL,91.8%
same,−80°C for 1month Accuracy (%),"[3]; −80°C for 1 month, concentration 1.56 ng/mL",111.0%
same,−80°C for 1month Accuracy (%),"[3]; −80°C for 1 month, concentration 12.5 ng/mL",85.1%
same,−80°C for 1month Accuracy (%),"[3]; −80°C for 1 month, concentration 100 ng/mL",96.0%
same,−80°C for 1month Accuracy (%),"[3]; −80°C for 1 month, concentration 500 ng/mL",87.4%
COc1cc(/C=C/C(=O)O)ccc1O [ferulic acid],MRT,"[1]; rat plasma, oral QJYQ 3.15 g/kg, MRT type not specified",greater than 8 h
same,AUC(0-t),[1]; [7],173.23 ± 5.66 ng·h/mL
same,AUC(0-∞),[1]; [7],176.72 ± 28.57 ng·h/mL
same,Cmax,[1]; [7],51.71 ± 10.68 ng/mL
same,MRT (0-∞),[1]; [7],8.43 ± 0.53 h
same,MRT(0-t),[1]; [7],8.40 ± 0.20 h
same,T1/2,[1]; [7],2.12 ± 0.07 h
same,Working solution Accuracy (%),[2]; 12.5 ng/mL,87.7%
same,Working solution Accuracy (%),[2]; 50 ng/mL,96.8%
same,Working solution Accuracy (%),[2]; 100 ng/mL,88.3%
same,Working solution Accuracy (%),[2]; 500 ng/mL,96.7%
same,Autosampler for 24 h Accuracy (%),[3]; 12.5 ng/mL,84.5%
same,Room temperature for 24 h Accuracy (%),[3]; 12.5 ng/mL,104.0%
same,Freeze thaw cycles Accuracy (%),[3]; 12.5 ng/mL,96.0%
same,−80°C for 1month Accuracy (%),"[3]; 12.5 ng/mL, −80°C 1 month",115.0%
same,Autosampler for 24 h Accuracy (%),[3]; 50 ng/mL,86.9%
same,Room temperature for 24 h Accuracy (%),[3]; 50 ng/mL,96.8%
same,Freeze thaw cycles Accuracy (%),[3]; 50 ng/mL,98.3%
same,−80°C for 1month Accuracy (%),"[3]; 50 ng/mL, −80°C 1 month",90.9%
same,Autosampler for 24 h Accuracy (%),[3]; 100 ng/mL,91.5%
same,Room temperature for 24 h Accuracy (%),[3]; 100 ng/mL,86.7%
same,Freeze thaw cycles Accuracy (%),[3]; 100 ng/mL,115.0%
same,−80°C for 1month Accuracy (%),"[3]; 100 ng/mL, −80°C 1 month",95.9%
same,Autosampler for 24 h Accuracy (%),[3]; 500 ng/mL,93.6%
same,−80°C for 1month Accuracy (%),"[3]; 500 ng/mL, −80°C 1 month",107.0%
O=C(O)[C@H]1O[C@@H](Oc2cc(O)c3c(=O)cc(-c4ccc(O)cc4)oc3c2)[C@H](O)[C@@H](O)[C@@H]1O [apigenin-7-O-glucuronide],AUC(0-t),"[1]; rat, in vivo, po, 3.15 g/kg",14603.11 ± 7523.95 ng·h/mL
same,AUC(0-∞),"[1]; rat, in vivo, po, 3.15 g/kg",15028.42 ± 7667.50 ng·h/mL
same,Cmax,"[1]; rat, in vivo, po, 3.15 g/kg",167.50 ± 108.49 ng/mL
same,MRT,"[1]; rat, in vivo, po, 3.15 g/kg",greater than 8 h
same,MRT (0-∞),"[1]; rat, in vivo, po, 3.15 g/kg",8.62 ± 1.65 h
same,MRT(0-t),"[1]; rat, in vivo, po, 3.15 g/kg",8.39 ± 1.62 h
same,T1/2,"[1]; rat, in vivo, po, 3.15 g/kg",4.17 ± 1.51 h
same,Tmax,"[1]; rat, in vivo, po, 3.15 g/kg",4.65 ± 2.79 h
same,Working solution Accuracy (%),[2]; 1.56 ng/mL,83.6%
same,Working solution Accuracy (%),[2]; 12.5 ng/mL,112.0%
same,Working solution Accuracy (%),[2]; 100 ng/mL,88.5%
same,Working solution Accuracy (%),[2]; 500 ng/mL,93.2%
same,Autosampler for 24 h Accuracy (%),[3]; 1.56 ng/mL,103.0%
same,Room temperature for 24 h Accuracy (%),[3]; 1.56 ng/mL,114.0%
same,Freeze thaw cycles Accuracy (%),[3]; 1.56 ng/mL,109.0%
same,−80°C for 1month Accuracy (%),"[3]; 1.56 ng/mL, −80°C 1 month",104.0%
same,Autosampler for 24 h Accuracy (%),[3]; 12.5 ng/mL,93.2%
same,Room temperature for 24 h Accuracy (%),[3]; 12.5 ng/mL,92.2%
same,Freeze thaw cycles Accuracy (%),[3]; 12.5 ng/mL,85.6%
same,−80°C for 1month Accuracy (%),"[3]; 12.5 ng/mL, −80°C 1 month",86.0%
same,Autosampler for 24 h Accuracy (%),[3]; 100 ng/mL,94.1%
same,Room temperature for 24 h Accuracy (%),[3]; 100 ng/mL,90.4%
same,Freeze thaw cycles Accuracy (%),[3]; 100 ng/mL,86.4%
same,−80°C for 1month Accuracy (%),"[3]; 100 ng/mL, −80°C 1 month",85.0%
same,Autosampler for 24 h Accuracy (%),[3]; 500 ng/mL,85.5%
same,Room temperature for 24 h Accuracy (%),[3]; 500 ng/mL,104.0%
same,Freeze thaw cycles Accuracy (%),[3]; 500 ng/mL,88.3%
same,−80°C for 1month Accuracy (%),"[3]; 500 ng/mL, −80°C 1 month",108.0%
O=C(O)c1ccc(O)c(O)c1 [protocatechuic acid],Tmax,[1]; [4],< 0.5 h
same,half-life,[1]; [5],140 ± 31.2 min
same,AUC(0-t),[1]; [6],40.8 ± 10.9 ng·h/mL
same,AUC(0-inf),[1]; [5],40.9 ± 17.3 ng·h/mL
same,Cmax,"[1]; male, Sprague-Dawley, rat plasma, oral QJYQ 3.15 g/kg, n = 8, mean ± SD, read-out: Cmax",6.79 ± 4.35 ng/mL
same,MRT inf,[1]; [5],5.32 ± 1.53 h
same,MRT last,[1]; [5],5.3 ± 1.02 h
same,Working solution Accuracy (%),[2]; 1.56 ng/mL,82.3%
same,Working solution Accuracy (%),[2]; 12.5 ng/mL,104.0%
same,Working solution Accuracy (%),[2]; 100 ng/mL,92.6%
same,Working solution Accuracy (%),[2]; 500 ng/mL,88.9%
same,Autosampler for 24 h Accuracy (%),[3]; 1.56 ng/mL,103.0%
same,Room temperature for 24 h Accuracy (%),[3]; 1.56 ng/mL,110.0%
same,Freeze thaw cycles Accuracy (%),[3]; 1.56 ng/mL,103.0%
same,−80°C for 1month Accuracy (%),"[3]; 1.56 ng/mL, −80°C 1 month",80.4%
same,Autosampler for 24 h Accuracy (%),[3]; 12.5 ng/mL,86.0%
same,Room temperature for 24 h Accuracy (%),[3]; 12.5 ng/mL,91.0%
same,−80°C for 1month Accuracy (%),"[3]; 12.5 ng/mL, −80°C 1 month",114.0%
same,Autosampler for 24 h Accuracy (%),[3]; 100 ng/mL,98.5%
same,Room temperature for 24 h Accuracy (%),[3]; 100 ng/mL,106.0%
same,Freeze thaw cycles Accuracy (%),[3]; 100 ng/mL,90.0%
same,−80°C for 1month Accuracy (%),"[3]; 100 ng/mL, −80°C 1 month",100.0%
same,Autosampler for 24 h Accuracy (%),[3]; 500 ng/mL,85.2%
same,Room temperature for 24 h Accuracy (%),[3]; 500 ng/mL,85.3%
same,Freeze thaw cycles Accuracy (%),[3]; 500 ng/mL,89.0%
same,−80°C for 1month Accuracy (%),"[3]; 500 ng/mL, −80°C 1 month",91.2%
